According to patent US20040224942A1 (priority 2003, published 2004):
Several values for one entry are separate records, joined by “and”; a condition that tells them apart may be missing. Equal entries are not always repeated. Where two headings read alike, the source gives them in different places.

Experiments:
M2 muscarinic receptor = target: T1, M2 muscarinic receptor (Homo sapiens, UniProt P08172); experiment: R-SAT functional receptor assay, M2; details: for Emax: read-out: % Efficacy M2
T1 sequence (P08172 1-466): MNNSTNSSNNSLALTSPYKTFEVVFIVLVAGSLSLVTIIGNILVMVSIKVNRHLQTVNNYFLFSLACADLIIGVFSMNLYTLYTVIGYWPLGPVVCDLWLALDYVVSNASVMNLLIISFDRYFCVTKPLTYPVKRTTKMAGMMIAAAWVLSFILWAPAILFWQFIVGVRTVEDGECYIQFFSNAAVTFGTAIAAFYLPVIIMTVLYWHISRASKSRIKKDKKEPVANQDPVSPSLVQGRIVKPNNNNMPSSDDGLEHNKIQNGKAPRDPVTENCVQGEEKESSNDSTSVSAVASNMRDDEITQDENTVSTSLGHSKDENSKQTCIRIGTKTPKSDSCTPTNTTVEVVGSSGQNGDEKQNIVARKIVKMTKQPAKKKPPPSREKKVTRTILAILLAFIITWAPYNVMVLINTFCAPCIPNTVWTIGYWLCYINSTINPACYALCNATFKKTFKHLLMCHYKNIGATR

M4 muscarinic receptor [1] = target: T2, M4 muscarinic receptor (Homo sapiens, UniProt P08173); experiment: cell-based; details: read-out: % Efficacy M4
T2 sequence (P08173 1-479): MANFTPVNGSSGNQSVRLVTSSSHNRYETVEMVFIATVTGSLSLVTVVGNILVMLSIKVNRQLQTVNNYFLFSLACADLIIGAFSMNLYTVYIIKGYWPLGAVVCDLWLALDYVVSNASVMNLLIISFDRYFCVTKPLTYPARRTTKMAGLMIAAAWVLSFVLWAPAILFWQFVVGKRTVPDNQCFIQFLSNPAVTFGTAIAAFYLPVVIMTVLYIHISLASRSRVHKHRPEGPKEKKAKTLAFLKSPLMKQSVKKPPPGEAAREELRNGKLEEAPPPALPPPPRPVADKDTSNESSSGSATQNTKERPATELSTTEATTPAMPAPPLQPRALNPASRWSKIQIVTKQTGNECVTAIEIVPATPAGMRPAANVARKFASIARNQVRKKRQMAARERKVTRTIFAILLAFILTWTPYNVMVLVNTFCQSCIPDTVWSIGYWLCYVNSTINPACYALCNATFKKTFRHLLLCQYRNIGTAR

M5 muscarinic receptor = target: T3, M5 muscarinic receptor (Homo sapiens, UniProt P08912); experiment: R-SAT functional receptor assay, M5; assay type: cell-based; details: for % Efficacy M5: relative to full agonist carbachol; for Emax: read-out: % Efficacy M5
T3 construct: expressed in transfected cells
T3 sequence (P08912 1-532): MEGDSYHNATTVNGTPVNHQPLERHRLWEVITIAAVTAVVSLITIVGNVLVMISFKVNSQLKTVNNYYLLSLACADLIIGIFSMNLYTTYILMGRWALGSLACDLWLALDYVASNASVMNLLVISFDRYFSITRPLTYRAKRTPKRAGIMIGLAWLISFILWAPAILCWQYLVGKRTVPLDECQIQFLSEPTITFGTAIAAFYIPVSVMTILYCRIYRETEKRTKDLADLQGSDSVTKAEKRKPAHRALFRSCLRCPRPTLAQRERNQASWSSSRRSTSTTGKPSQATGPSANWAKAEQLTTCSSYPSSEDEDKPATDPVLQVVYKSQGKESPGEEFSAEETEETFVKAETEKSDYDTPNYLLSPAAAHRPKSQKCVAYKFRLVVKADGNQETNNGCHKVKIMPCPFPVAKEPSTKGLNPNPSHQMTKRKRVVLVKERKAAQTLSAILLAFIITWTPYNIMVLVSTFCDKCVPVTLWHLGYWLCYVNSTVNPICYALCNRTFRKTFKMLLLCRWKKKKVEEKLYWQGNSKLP

M4 muscarinic receptor [2] = target: T2, M4 muscarinic receptor; details: R-SAT; relative to full agonist carbachol; ± standard deviation
M3 muscarinic receptor = M3 muscarinic receptor (Homo sapiens, UniProt P20309); experiment: R-SAT functional receptor assay, M3; details: for Emax: read-out: % Efficacy M3
M3 muscarinic receptor, sequence (P20309 whole entry): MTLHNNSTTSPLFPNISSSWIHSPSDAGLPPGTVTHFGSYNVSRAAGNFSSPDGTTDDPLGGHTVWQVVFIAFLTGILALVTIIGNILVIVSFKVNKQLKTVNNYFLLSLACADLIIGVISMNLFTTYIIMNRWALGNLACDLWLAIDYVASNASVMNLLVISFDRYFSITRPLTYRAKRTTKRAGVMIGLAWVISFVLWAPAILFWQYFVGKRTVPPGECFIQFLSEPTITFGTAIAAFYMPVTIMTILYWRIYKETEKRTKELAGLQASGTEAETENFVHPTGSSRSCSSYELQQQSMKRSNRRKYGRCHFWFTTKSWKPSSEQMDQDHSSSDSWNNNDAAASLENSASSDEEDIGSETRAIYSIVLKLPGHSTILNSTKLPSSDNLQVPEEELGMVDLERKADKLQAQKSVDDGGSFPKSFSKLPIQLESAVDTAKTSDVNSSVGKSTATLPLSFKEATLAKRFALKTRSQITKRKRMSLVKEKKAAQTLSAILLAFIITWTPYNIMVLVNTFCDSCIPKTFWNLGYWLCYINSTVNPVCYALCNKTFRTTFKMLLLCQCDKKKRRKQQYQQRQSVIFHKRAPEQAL

[3] = target: T4, human M1 muscarinic receptors (Homo sapiens, UniProt P11229); experiment: cell-based; details: ± standard deviation
T4 sequence (P11229 whole entry): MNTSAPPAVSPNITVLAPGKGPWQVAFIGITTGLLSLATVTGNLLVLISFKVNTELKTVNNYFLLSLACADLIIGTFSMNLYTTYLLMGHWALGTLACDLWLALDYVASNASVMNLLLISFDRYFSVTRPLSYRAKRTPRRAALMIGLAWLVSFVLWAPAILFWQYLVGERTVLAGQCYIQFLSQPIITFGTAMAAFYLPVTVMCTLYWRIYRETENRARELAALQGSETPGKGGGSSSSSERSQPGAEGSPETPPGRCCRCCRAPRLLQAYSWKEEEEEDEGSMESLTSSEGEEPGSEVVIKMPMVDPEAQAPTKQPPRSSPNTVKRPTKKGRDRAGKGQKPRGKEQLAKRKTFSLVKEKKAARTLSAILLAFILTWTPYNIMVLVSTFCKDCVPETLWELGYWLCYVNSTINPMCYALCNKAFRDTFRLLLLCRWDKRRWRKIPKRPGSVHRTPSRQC

[4] = target: T4, human M1 muscarinic receptors; details: R-SAT; relative to full agonist carbachol; ± standard deviation
[5] = target: T4, human M1 muscarinic receptors; details: PI hydrolysis; ± standard deviation
[6] = target: T4, human M1 muscarinic receptors; experiment: cell-based
[7] = test system: hippocampal MAP kinase (MAPK) activity in CA1 pyramidal neurons; experiment: hippocampal MAP kinase activation assay after parenteral administration; assay type: in vivo, C57BL6 mice

| Emax (M2 muscarinic receptor) | Emax (M4 muscarinic receptor [1]) | Emax (M3 muscarinic receptor) | Emax (M5 muscarinic receptor) | Structure (SMILES) | % Efficacy M5 (M5 muscarinic receptor; R-SAT, ± standard deviation) | further results |
| --- | --- | --- | --- | --- | --- | --- |
| 57 ± 4% | 49 ± 6% |  |  | CN1CCN(C2=Nc3cc(Cl)ccc3Nc3ccccc32)CC1 [Clozapine, clozapine] | no response |  |
|  |  |  |  | Cc1cc2c(s1)Nc1ccccc1N=C2N1CCN(C)CC1 [Olanzapine, olanzapine] | no response | % Efficacy M2 (M2 muscarinic receptor; R-SAT, relative to full agonist carbachol, ± standard deviation): no response; % Efficacy M4 (M4 muscarinic receptor [2]): no response |
| 106 ± 9% | 116 ± 9% | 66 ± 6% | 86 ± 12% | CCCCCCOc1nsnc1C1=CCCN(C)C1 [Xanomeline] |  |  |
|  | 96 ± 3% |  | 105 ± 3% | C[N+](C)(C)CCOC(N)=O [Carbachol, carbachol] |  |  |
| 78 ± 7% | 88 ± 3% | 19 ± 3% | 66 ± 4% | Clc1ccc2c(c1)N=C(N1CCNCC1)c1ccccc1N2 [N-desmethylclozapine, 8-chloro-11-(1-piperazinyl)-5H-dibenzo[b,e][1,4]diazepine] |  | EC50 ([3]; pEC50 M1, R-SAT): 63.1 nM and 60.3 nM; Emax ([3]; read-out: % Efficacy M1, R-SAT, relative to full agonist carbachol): 65%; EC50 (M2 muscarinic receptor): 182 nM; % Efficacy M1 [4]: 61 ± 5%; EC50 (M3 muscarinic receptor): 129 nM; pEC50 M1 [5]: 7.01 ± 0.06; EC50 [6]: 100 nM; Emax ([6]; read-out: % Efficacy M1, PI hydrolysis, relative to full agonist carbachol, ± standard deviation): > 65%; blood brain barrier penetration ([7]; concluded from central MAPK activation after s.c. dosing): penetrates the blood brain barrier; MAPK activation in hippocampus ([7]; s.c., dose of 30 mg/kg): Robust activation; phospho-MAPK immunoreactivity in CA1 pyramidal neurons ([7]; s.c., immunohistochemistry, compared to vehicle or clozapine treatment): increased phospho-MAPK immunoreactivity; EC50 (M5 muscarinic receptor; R-SAT, ± standard deviation, read-out: pEC50 M5 (converted)): 45.7 nM |
